Measured values: patent US20250170266A1 (ZYMEWORKS BC INC., priority 2022, published 2025)
Read-outs that look alike come from different tables or passages of the source.

Legend:
Type in all cases: cell-based
hTLR7 = biological target: T1, hTLR7 (Homo sapiens, UniProt Q9NYK1); experiment: Reporter Gene Assay (RGA), HEK-Blue hTLR7 reporter cells, SEAP readout; settings: overnight incubation, SEAP absorbance 620 nm
T1 construct: host or cells: HEK-Blue hTLR7 reporter cells (HEK293-derived, own knowledge)
T1 sequence (Q9NYK1 27-1049): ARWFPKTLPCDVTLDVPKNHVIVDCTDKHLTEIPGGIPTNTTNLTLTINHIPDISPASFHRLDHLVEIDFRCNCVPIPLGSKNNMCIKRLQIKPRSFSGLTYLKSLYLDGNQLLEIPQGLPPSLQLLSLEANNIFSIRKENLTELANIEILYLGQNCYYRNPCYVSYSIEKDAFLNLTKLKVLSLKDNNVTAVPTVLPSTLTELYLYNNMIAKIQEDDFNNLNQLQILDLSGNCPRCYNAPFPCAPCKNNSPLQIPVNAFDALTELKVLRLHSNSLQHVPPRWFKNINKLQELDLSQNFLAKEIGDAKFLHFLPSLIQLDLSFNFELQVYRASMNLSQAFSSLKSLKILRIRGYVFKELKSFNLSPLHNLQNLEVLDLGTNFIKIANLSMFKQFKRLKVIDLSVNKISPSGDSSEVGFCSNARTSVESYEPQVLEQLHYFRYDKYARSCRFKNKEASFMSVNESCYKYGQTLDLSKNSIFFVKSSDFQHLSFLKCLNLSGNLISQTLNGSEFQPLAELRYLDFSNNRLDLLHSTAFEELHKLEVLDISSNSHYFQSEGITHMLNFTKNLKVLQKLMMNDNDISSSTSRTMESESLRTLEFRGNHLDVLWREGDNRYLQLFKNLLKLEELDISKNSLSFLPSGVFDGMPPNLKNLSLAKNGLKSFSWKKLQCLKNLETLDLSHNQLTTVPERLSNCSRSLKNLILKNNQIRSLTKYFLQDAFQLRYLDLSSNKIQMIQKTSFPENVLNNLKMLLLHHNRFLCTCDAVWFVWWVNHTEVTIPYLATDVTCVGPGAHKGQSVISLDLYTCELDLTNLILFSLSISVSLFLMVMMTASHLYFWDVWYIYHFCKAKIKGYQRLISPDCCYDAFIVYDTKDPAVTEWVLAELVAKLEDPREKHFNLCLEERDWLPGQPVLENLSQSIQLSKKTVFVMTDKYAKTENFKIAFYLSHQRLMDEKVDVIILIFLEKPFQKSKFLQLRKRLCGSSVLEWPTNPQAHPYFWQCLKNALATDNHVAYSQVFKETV
Summary of the method: (§1)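 HEK-Blue reporter cells expressing human or mouse TLR7 (1.5×10^4 cells) were treated with an 11-point, 4-fold compound titration from 15 pM in HEK-Blue Detection medium. Incubation was overnight at 37° C with 5% CO2. Secreted embryonic alkaline phosphatase was read as absorbance at 620 nm.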

mTLR7 = biological target: T2, mTLR7 (Mus musculus, UniProt P58681); experiment: Reporter Gene Assay (RGA), HEK-Blue mTLR7 reporter cells, SEAP readout; settings: overnight incubation, SEAP absorbance 620 nm
T2 construct: host or cells: HEK-Blue mTLR7 reporter cells (HEK293-derived, own knowledge)
T2 sequence (P58681 27-1050): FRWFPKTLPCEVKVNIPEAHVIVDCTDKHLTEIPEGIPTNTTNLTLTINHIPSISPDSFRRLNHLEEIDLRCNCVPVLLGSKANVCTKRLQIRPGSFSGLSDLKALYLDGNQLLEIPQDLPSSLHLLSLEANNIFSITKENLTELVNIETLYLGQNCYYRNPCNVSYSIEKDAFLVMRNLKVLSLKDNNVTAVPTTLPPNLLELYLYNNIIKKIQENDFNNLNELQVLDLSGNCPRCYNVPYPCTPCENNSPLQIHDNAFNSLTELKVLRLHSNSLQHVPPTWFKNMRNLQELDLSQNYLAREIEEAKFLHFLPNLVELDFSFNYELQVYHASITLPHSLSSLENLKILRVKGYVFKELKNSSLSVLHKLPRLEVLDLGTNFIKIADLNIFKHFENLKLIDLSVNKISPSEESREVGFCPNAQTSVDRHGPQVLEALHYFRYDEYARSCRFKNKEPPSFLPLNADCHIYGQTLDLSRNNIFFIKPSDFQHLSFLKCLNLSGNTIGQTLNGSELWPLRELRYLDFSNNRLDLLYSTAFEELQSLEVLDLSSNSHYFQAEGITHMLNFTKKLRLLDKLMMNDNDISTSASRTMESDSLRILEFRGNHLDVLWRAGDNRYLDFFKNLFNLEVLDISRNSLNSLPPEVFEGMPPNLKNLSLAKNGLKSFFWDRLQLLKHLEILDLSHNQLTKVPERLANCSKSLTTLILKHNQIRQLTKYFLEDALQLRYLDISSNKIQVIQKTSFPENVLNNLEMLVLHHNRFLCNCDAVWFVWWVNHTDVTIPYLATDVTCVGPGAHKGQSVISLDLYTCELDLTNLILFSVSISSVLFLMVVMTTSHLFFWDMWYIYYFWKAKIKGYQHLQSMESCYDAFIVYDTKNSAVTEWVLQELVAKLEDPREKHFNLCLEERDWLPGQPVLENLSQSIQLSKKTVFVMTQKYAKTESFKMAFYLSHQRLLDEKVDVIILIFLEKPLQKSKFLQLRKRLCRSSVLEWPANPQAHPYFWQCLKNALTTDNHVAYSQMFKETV
Summary of the method: as §1

[1] = tested on: Human peripheral blood mononuclear cells (PBMCs); experiment: Human PBMC Assay, cytokine release (HTRF); settings: 24 hours; for EC50: PBMC
Summary of the method: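 Cryopreserved human PBMCs, rested overnight with 10 ng/ml hIL3, then 300,000 cells/well treated 24 h at 37° C with compound (4-fold, 11-point titration from 15 μM) in RPMI+10% FBS. Supernatant hIL6, hTNFα and hIFNα measured by HTRF; growth medium as negative control.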

Mouse splenocytes = experiment: Mouse Splenocyte Assay, cytokine release (HTRF); settings: 24 hours, mIL6 in supernatant; for EC50: Splenocyte, read-out: Splenocyte IL6 EC50
Summary of the method: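 Splenocytes from female balb/c nude mice, thawed, 100,000 per well in RPMI + 10% FBS. Exposed for 24 h at 37 °C to a 4-fold 11-point compound titration from 15 μM; supernatant mIL6 and mTNFα measured by HTRF.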

[2] = hIFNα in supernatant, EC50 values approximated and divided into groups, read-out: PBMC IFNa EC50
[3] = hIL6 in supernatant, read-out: PBMC IL6 EC50

| Structure (SMILES) | EC50 (hTLR7) [nM] | EC50 (mTLR7) [nM] | EC50 [1, 2] [nM] | EC50 (Mouse splenocytes) [nM] | PBMC IL6 EC50 (nM) ([1]; hIL6 in supernatant) | EC50 [1, 3] [nM] | Splenocyte IL6 EC50 (nM) (Mouse splenocytes) |
| --- | --- | --- | --- | --- | --- | --- | --- |
| CCCCOc1nc(N)c2nc(O)n(Cc3ccc(CN4CCC(CN)CC4)cc3OC)c2n1 [Compound 156, 6-amino-9-(4-((4-(aminomethyl)piperidin-1-yl)methyl)-2-methoxybenzyl)-2-butoxy-9H-purin-8-ol] | 0.3 | 0.3 | > 10 | 2.5 | – | – | – |
| CCCCOc1nc(N)c2nc(O)n(Cc3ccc(N4CCC5(CCNCC5)CC4)nc3)c2n1 [Compound 168, 9-((6-(3,9-diazaspiro[5.5]undecan-3-yl)pyridin-3-yl)methyl)-6-amino-2-butoxy-9H-purin-8-ol] | 0.1 | 5.7 | > 10 | 35.7 | inactive | – | – |
| CCCCCNc1nc(N)c2nc(O)n(Cc3ccc(CNCCN)cc3)c2n1 [Compound 189, 6-amino-9-(4-(((2-aminoethyl)amino)methyl)benzyl)-2-(pentylamino)-9H-purin-8-ol] | 698 | 41 | 1 to 10 | 80.6 | – | 151 | – |
| CCCCOc1nc(N)c2nc(O)n(Cc3ccc(CCN4CCNCC4)cc3OC)c2n1 [Compound 180, 6-amino-2-butoxy-9-(2-methoxy-4-(2-(piperazin-1-yl)ethyl)benzyl)-9H-purin-8-ol] | 34 | 79.9 | > 10 | 873 | inactive | – | – |
| CCCN(CCC)Cc1ccc(Cn2c(O)nc3c(N)nc(OCC)nc32)c(OC)c1 [Compound 125, 6-amino-9-(4-((dipropylamino)methyl)-2-methoxybenzyl)-2-ethoxy-9H-purin-8-ol] | 0.5 | 4.3 | 1 to 10 | 171 | – | 2230 | – |
| CCCN(CCC)Cc1ccc(CNCc2ccc(Cn3c(O)nc4c(N)nc(OCC)nc43)c(OC)c2)cc1 [Compound 141, 6-amino-9-(4-(((4-((dipropylamino)methyl)benzyl)amino)methyl)-2-methoxy-benzyl)-2-ethoxy-9H-purin-8-ol] | 0.1 | 1 | < 0.1 | 1.3 | – | 9290 | – |
| CCCCCNc1nc(N)c2nc(O)n(Cc3ccc(CNC4CC(F)(F)C4)cc3)c2n1 [Compound 186, 6-amino-9-(4-(((3,3-difluorocyclobutyl)amino)methyl)benzyl)-2-(pentyl-amino)-9H-purin-8-ol] | 452 | 11.1 | > 10 | – | inactive | – | inactive |
| CCCCOc1nc(N)c2nc(O)n(Cc3ccc(CN4CCC(N)CC4)cc3OC)c2n1 [Compound 155, 6-amino-9-(4-((4-aminopiperidin-1-yl)methyl)-2-methoxybenzyl)-2-butoxy-9H-purin-8-ol] | 0.2 | 9.2 | > 10 | 148 | – | 878 | – |
| CCOc1nc(N)c2nc(O)n(Cc3ccc(CN4CCC(C5CCNCC5)CC4)cc3OC)c2n1 [Compound 138, 9-(4-([4,4′-bipiperidin]-1-ylmethyl)-2-methoxybenzyl)-6-amino-2-ethoxy-9H-purin-8-ol] | 17.2 | 243 | > 10 | 186 | – | 130 | – |
| CCCCOc1nc(N)c2nc(O)n(Cc3ccc(N4CCNCC4)cc3OC)c2n1 [Compound 169, 6-amino-2-butoxy-9-(2-methoxy-4-(piperazin-1-yl)benzyl)-9H-purin-8-ol] | 1.1 | 3 | 1 to 10 | 23.2 | – | – | – |
| CCOc1nc(N)c2nc(O)n(Cc3ccc(CNCc4ccc(CNCc5ccccc5)cc4)cc3OC)c2n1 [Compound 147, 6-amino-9-(4-(((4-((benzylamino)methyl)benzyl)amino)methyl)-2-methoxy-benzyl)-2-ethoxy-9H-purin-8-ol] | 0.9 | 16.9 | < 0.1 | 13.2 | – | 38.8 | – |
| CCCCOc1nc(N)c2nc(O)n(Cc3ccc(CNCCCCN)cc3OC)c2n1 [Compound 160, 6-amino-9-(4-(((4-aminobutyl)amino)methyl)-2-methoxybenzyl)-2-butoxy-9H-purin-8-ol] | 7.2 | 10 | < 0.1 | 6.6 | – | 1080 | – |
| CCOc1nc(N)c2nc(O)n(Cc3ccc(CNC4CCC4)cc3OC)c2n1 [Compound 108, 6-amino-9-(4-((cyclobutylamino)methyl)-2-methoxybenzyl)-2-ethoxy-9H-purin-8-ol] | 6 | 5 | < 0.1 | 71.9 | – | 564 | – |
| CCOc1nc(N)c2nc(O)n(Cc3ccc(CN4CCC(N)CC4)cc3F)c2n1 [Compound 153, 6-amino-9-(4-((4-aminopiperidin-1-yl)methyl)-2-fluorobenzyl)-2-ethoxy-9H-purin-8-ol] | 6.1 | 263 | > 10 | – | – | 39 | inactive |
| CCOc1nc(N)c2nc(O)n(Cc3ccc(CN4CCC(N)CC4)cc3OC)c2n1 [Compound 110, 6-amino-9-(4-((4-aminopiperidin-1-yl)methyl)-2-methoxybenzyl)-2-ethoxy-9H-purin-8-ol] | 112 | 184 | 1 to 10 | ≥ 1000 | – | 937 | – |
| CCCCOc1nc(N)c2nc(O)n(Cc3ccc(CCCNC4CCNCC4)cc3OC)c2n1 [Compound 176, 6-amino-2-butoxy-9-(2-methoxy-4-(3-(piperidin-4-ylamino)propyl)benzyl)-9H-purin-8-ol] | < 0.1 | < 0.1 | > 10 | 5.8 | inactive | – | – |
